Legend:
[1] = system: Bovine Pulmonary Artery Endothelium; assay: Transendothelial electrical resistance (TER) across bovine pulmonary artery endothelium; assay type: cell-based; details: VEGF 100 ng/ml, Sph 1-P 1 μM, HGF 20 ng/ml
Method: Bovine pulmonary artery endothelial cells were purchased from the American Type Culture Collection (ATCC®, Rockville, Md.) and utilized at passage 19-24. Cells were maintained in Medium 199 (Life Technologies, Rockville, Md.) supplemented with 20% (v/v) colostrum-free bovine serum (CFBS) (Irvine Scientific, Santa Ana, Calif.), 15 μg/ml endothelial cell growth supplement (Upstate Biotechnology, Lake Placid, N.Y.), 1% antibiotic and antimycotic, and 0.1 mM non-essential amino acids (Life Technologies). Human pulmonary artery endothelial cells were purchased from Clonetics (Walkersville, Md.), cultured in EBM-2 complete medium (Clonetics) and utilized at passage 5-10. Human alveolar epithelial cells (A549) were purchased from ATCC® and cultured in the same medium as the bovine endothelial cells, except that the endothelial cell growth supplement was omitted. All cells were maintained at 37° C. in a humidified atmosphere of 5% CO2 and 95% air.
Electrical resistance of EC monolayers was measured using electrical cell impedance sensor system (Applied Biophysics Inc., Troy, N.Y.) as described in Garcia, J. G. N. et al. (2000) J. Appl. Physiol. 89:2333-2343. Cells grown on gold microelectrodes (10^−3 cm^2) in polycarbonate wells act as insulating particles, and the resistance across the monolayers (transendothelial electrical resistance, or TER) is measured in real time. As cells adhere on the microelectrode and intercellular cell contacts are formed or in response to agents which increase junctional integrity, the TER increases (Garcia, J. G. N. et al. (2001) J. Clin. Invest. 108:689-711). In contrast, cell retraction, rounding, or loss of adhesion is reflected by decreases in TER (Garcia, J. G. N. et al. (2000) J. Appl. Physiol. 89:2333-2343). These measurements provide a highly sensitive biophysical assay that indicates the state of cell shape, focal adhesion, and endothelial barrier function (Giaever, I. and Keese, C. R. (1993) Nature 366:591-592; Tiruppathi, C. et al. (1992) Proc. Natl. Acad. Sci. USA 89:7919-7923). All electrical resistance data are presented as normalized values. Briefly, current was applied across the electrodes by a 4000 Hz AC voltage source with an amplitude of 1 V in series with a 1 MΩ resistance to approximate a constant current source (−1 μA). The small gold electrode and the larger counter electrode (1 cm^2) were connected to a phase-sensitive lock-in amplifier (5301A; EG&G Instruments Corp, Princeton, N.J.) with a built in differential preamplifier (5316A; EG&G Instruments Corp.). The in-phase and out-of-phase voltages between the electrodes were monitored in real time with the lock-in amplifier and converted to scalar measurements of transendothelial impedance, of which resistance was the primary focus. […] For some experiments, total TER was vectorially resolved into components reflecting resistance to current flow beneath the cell layer (α) and resistance to current flow between adjacent cells (Rb) as described in Garcia et al. (2000) supra utilizing the method of Giaiver and Keese which models the endothelial monolayer mathematically (Giaever, I. and Keese, C. R. (1993) Nature 366:591-592). Thus, changes in α reflect alterations in the net state of cell-matrix adhesion, whereas changes in Rb reflect alterations in the integrity of cell-cell adhesion. TER values from each microelectrode were pooled at discrete time points and plotted versus time as the mean±standard error of the mean (Garcia et al. (2000) supra).

Rac GTPase = Rac GTPase activity, p21 Rac-binding domain assay; assay type: cell-based; details: HGF 10 ng/mL or Sph-1-P 1 μM for 1 or 5 min
Method: Endothelial cells grown in 100 mm dishes were incubated with agonists in serum-free M199. Cells were lysed in 500 μl Mg^2+ lysis buffer (Upstate Biotechnology, Lake Placid, N.Y.) and homogenized by pipetting. After a brief centrifugation to remove the cell debris, 300 μl of supernatant was incubated with the agarose-conjugated p21-binding domain (PBD) of human PAK-1 (10 μg, 30 min, Upstate Biotechnology). The agarose beads were washed with 1 ml of lysis buffer 5 times and re-suspended in 30 μl of 2×SDS buffer. After 10 min centrifugation at 14,000 g, 15 μl of supernatant from each sample was subjected to electrophoresis in 15% PAGE. […] For total Rac protein measurement, 5 μl of the original cell lysates were used for electrophoresis and western analysis. […] Pulmonary artery endothelial cells were incubated with HGF (10 ng/mL) or Sph-1-P (1 μM) for 1 or 5 min. Cells were lysed, supernatants collected, and activated GTP-bound Rac was precipitated by agarose-conjugated human PAK-1 p21-binding domain and subsequently immunoblotted by anti-Rac mAb. Total Rac protein was detected using cell lysates.

GSK3β = GSK3β Ser9 phosphorylation by western immunoblot; assay type: cell-based, human; details: after HGF treatment
Method: Endothelial cell monolayers grown to confluence in 12-well plates and challenged with HGF were lysed with 100 μl of 2×SDS sample buffer, and cell lysates were transferred into microcentrifuge tubes and boiled for 5 min. After a brief spin, proteins from 10 μl cell lysates were separated on 12% SDS-PAGE and transferred to nitrocellulose (Schleicher & Schuell, Keene, N.H.) (30V, 18 h). After blocking with PBST (PBS with 0.1% Tween 20) containing 5% non-fat milk for 1 hr, nitrocellulose blots were reacted with primary antibodies diluted in PBST containing 5% BSA for 1 hr, washed with PBST (3×10 min), incubated with peroxidase-conjugated secondary antibodies (goat anti-rabbit IgG, 1:10,000 dilution, Sigma; or goat anti-mouse IgG, 1:10,000 dilution, Bio-Rad Labs, Richmond, Calif.) diluted in PBST with 5% non-fat milk for 1 hr and again washed with PBST (3×10 min). Finally, immunoreactive proteins were detected using ECL. The relative intensities of the protein bands were quantified by scanning densitometry.
HGF has been reported to increase the phosphorylation status of GSK3β, a multi-functional enzyme involved in glycogen synthesis and protein synthesis regulation activity in mammary epithelial cells (Papkoff, J. and Aikawa, M. (1998) Biochem. Biophys. Res. Commun. 247:851-858). Of potential importance to barrier regulation, GSK3β phosphorylation results in enzymatic inactivation and increases the level of uncomplexed cellular β-catenin (Papkoff, J. (1997) J. Biol. Chem. 272(7):4536-4543). […] Concomitant with HGF-induced TER augmentation, increases in phosphorylation of GSK3β after HGF treatment was detected by increased immunofluorescence and prominent by Western blotting at 2 min, with peak intensity leveling off at 15-30 min, although remaining above basal levels for more than 2 hr. […]

[2] = vs vehicle control, ±SEM, thrombin 100 μM

## HGF: heparin-binding glycoprotein, multifunctional cytokine, ligand of c-Met; purchased from R&D Systems
[1]; thrombin, 10-60 min
  TER response in words: brisk and sustained increase in TER
[1]; [2]
  changes in TER 30 min: +35 ± 5%
  changes in TER 60 min: +35 ± 4%
[1]; vs vehicle control, ±SEM, thrombin 100 μM, (+) increased, (−) decreased
  changes in TER 10 min: +25 ± 3%
Rac GTPase
  Rac activity: rapidly and transiently increases Rac activity
GSK3β
  duration of GSK3β phosphorylation above basal levels: more than 2 hr
  time of peak GSK3β phosphorylation: 15 to 30 min
GSK3β; Western blotting
  time at which GSK3β phosphorylation is prominent: 2 min
